The text below walks through data of patent publication US20150166505A1, “PYRIDINYL-SUBSTITUTED PYRAZOLYL CARBOXAMIDES” (GRÜNENTHAL GMBH, priority 2013, published 2015).

A word on the IC50: it is the concentration needed to halve the response being measured.

The target in experiment [1] is T1, CRAC channel (endogenous SOC in HEK293 cells) (Homo sapiens, UniProt Q96D31).
T1 construct: endogenous in cells; host or cells: HEK293 (ECACC)
Put plainly: HEK Calcium Influx Assay (FLIPR). In kind it is cell-based. As to the method:
The effect of compounds of the invention on intracellular [Ca^2+] was tested in the HEK293 cell line (ECACC). HEK293 cells were cultured in DMEM/F12/Glutamax (Gibco) containing 10% FCS (Gibco), and maintained at 37° C., 5% CO2. Cell were split twice a week [3*10^6 (Mon-Thu) and 1*10^6 (Thu-Mon) cells/50 ml medium in T-175 ZK culture flasks, respectively]. Twenty four hours pre-experiment, cells were seeded on 96 well plates (Poly-D-Lysine 96well Black/Clear Plate, BD Biocoat REF 356640) at a density of 40,000 cells/well in DMEM/F12 (Gibco) containing 10% FCS (Gibco), and maintained at 37° C., 5% CO2. Prior to store-depletion, cell culture medium was removed and cells were loaded with the a Calcium-sensitive fluorescent dye comprised within the Calcium-4-assay kit (Molecular Devices) in nominally Ca^2+-free HBS buffer (140 mM NaCl, 4 mM KCl, 0.2 mM MgCl2, 11 mM D-glucose, and 10 mM HEPES, pH 7.4) according to manufacturer's instruction for 60 min at 37° C., 5% CO2. Passive depletion of intracellular Ca^2+-stores was then triggered by employing the SERCA inhibitor thapsigargin (2 μM final) for 10 min in the dark (RT). To prevent immediate Ca^2+-entry via the activated Store-operated channels (SOCs), cells were maintained in Ca^2+-free HBS buffer comprising 100 μM EGTA during store-depletion. Intracellular changes in [Ca^2+] were subsequently monitored with the FLIPR device (Molecular Devices). In brief, baseline imaging post-store depletion was allowed for 1 min before adjusting the extracellular buffer to 3 mM CaCl2. Increases in intracellular [Ca^2+] due to pre-activated SOC channels were monitored for 15 min until intracellular Ca^2+ levels had declined into a steady-state. Finally, compounds were administered and Ca^2+ signals were recorded for additional 10 min. Inhibition of endogenous SOC in HEK293 cells was quantified employing the average Ca^2+ signal measured from 9.5-10 min post-administration. Zero percent inhibition (MAX) was defined as the Ca^2+ signal recorded from wells to which DMSO-only had been added instead of compound. Hundred percent inhibition (MIN) was defined as the signal obtained from wells in which cells haven't been treated with TG prior to Ca^2+ addition and to which DMSO-only had been added instead of compound. For routine IC50 determinations of compounds, 8 concentrations of a serial dilution (1:3.16) were tested, starting off from 10 μM. Reliable IC50's could consequently be determined only, if they were at least sub 2.5-3 μM.

Experiment [2] deals with Interleukin-2 (IL-2) production/release in Jurkat T cell line. Put plainly: Jurkat IL-2 Production Assay. The format is cell-based. The note with it: Homo sapiens; Jurkat T cells, PHA stimulation 22 hours. As to the method: Jurkat IL-2 Production Assay
The effect of compounds of the invention on Interleukin-2 (IL-2) production/release was tested in the Jurkat T cell line (ECACC) clone E6-1. Jurkat T cells were cultured in DMEM/F12/Glutamax (Gibco) containing 10% FCS (Gibco), and maintained at 37° C., 5% CO2. Cell were split twice a week [5*10^6 (Mon-Thu) and 1*10^7 (Thu-Mon) cells/50 ml medium in T-175 ZK culture flasks, respectively]. Prior to experiment, cells were seeded on 96 well plates (Cellstar 96 Well; Cat No. 655180, Greiner bio-one) at a density of 5*10^5 cells/well in DMEM/F12/Glutamax (Gibco) containing 10% FCS (Gibco), and incubated for 60 min at 37° C., 5% CO2. Subsequently, compounds were added and cells were allowed to incubate for 30 min at 37° C., 5% CO2. Cells were then stimulated with 15 μg/ml Phytohemagglutinin (PHA; Sigma) for 22 hours at 37° C., 5% CO2. Before sampling of the supernatants, cells were spun down (200*g/5 min/RT). The amount of IL-2 released into the supernatant was quantified with the human IL-2 AlphaLisa kit (Perkin Elmer) according to manufacturer's instructions. Luminescence proximity measurements were carried out in the Synergy H4 reader (BioTek) employing the fluorescence setting of the reader (ex: 680/30 nm; em: 620/40 nm). Inhibition of IL-production/release in/from Jurkat T cells was quantified as follows: Zero percent inhibition (MAX) was defined as the [IL-2] determined in supernatants derived from cells to which PHA & DMSO-only had been added instead of compound. Hundred percent inhibition (MIN) was defined as the [IL-2] determined in supernatants derived from cells that had been pre-treated with 1 μM CyclosporineA (Sigma) before the addition of 15 μg/ml PHA. For routine IC50 determinations of compounds, 8 concentrations of a serial dilution (1:3.16) were tested, starting off from 10 μM.

Where [3] appears, read: thapsigargin store depletion, read-out: % inhib. [@ 10 μM] FLIPR.
[4] abbreviates: numeric values of Table 2, read-out: inhib. [@ 10 μM] FLIPR.

SMILES strings stand for the structures. Like-named read-outs stand apart in the source and are kept apart here. Bounds are passed on as bounds.

T1 sequence (Q96D31 whole entry): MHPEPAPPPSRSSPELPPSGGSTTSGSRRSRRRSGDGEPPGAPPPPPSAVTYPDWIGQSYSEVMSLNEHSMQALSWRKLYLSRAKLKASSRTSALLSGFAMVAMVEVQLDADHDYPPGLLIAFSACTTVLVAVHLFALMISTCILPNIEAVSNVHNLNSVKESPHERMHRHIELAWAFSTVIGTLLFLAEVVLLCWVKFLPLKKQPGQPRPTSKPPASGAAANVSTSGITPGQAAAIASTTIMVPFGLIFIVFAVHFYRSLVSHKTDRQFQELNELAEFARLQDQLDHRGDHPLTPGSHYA

Regarding `CCOc1cc(C(F)(F)F)c(-c2cc(C(=O)Nc3c(F)cccc3F)nn2C)cn1` [Example 32, N-(2,6-Difluoro-phenyl)-5-[6-ethoxy-4-(trifluoromethyl)-pyridin-3-yl]-1-methyl-1H-pyrazole-3-carboxylic acid amide], the inhibition at 10 µM in experiment [1] (setting [3]) was more than 70%. The IC50 in experiment [2] lay in the range of 0.5 to 1 µM.
As to `Cc1c(-c2cc(C(=O)Nc3c(F)cncc3F)nn2C)cnc(C2CC2)c1F` [Example 34, 5-(6-Cyclopropyl-5-fluoro-4-methyl-pyridin-3-yl)-N-(3,5-difluoro-pyridin-4-yl)-1-methyl-1H-pyrazole-3-carboxylic acid amide], the inhibition at 10 µM in experiment [1] (setting [3]) is more than 70%. Further, the IC50 in experiment [2] lay within 1 to 5 µM.
The like results for `COc1cc(OC)c(-c2c(C)c(C(=O)Nc3c(F)cncc3F)nn2C)cn1` [Example 65, N-(3,5-Difluoro-pyridin-4-yl)-5-(4,6-dimethoxy-pyridin-3-yl)-1,4-dimethyl-1H-pyrazole-3-carboxylic acid amide] were, in that order, more than 70% and 1 to 5 µM.
As for `Cc1cc(OC(F)(F)F)ncc1-c1cc(C(=O)Nc2c(F)cncc2F)nn1C` [Example 11, N-(3,5-Difluoro-pyridin-4-yl)-1-methyl-5-[4-methyl-6-(trifluoromethyloxy)-pyridin-3-yl]-1H-pyrazole-3-carboxylic acid amide], the inhibition at 10 µM in experiment [1] (setting [4]) is 94%; in experiment [1] (setting [3]), more than 70%. Also, in experiment [2], the IC50 was less than 0.5 µM.
Turning to `Cc1c(-c2cc(C(=O)Nc3c(F)cccc3F)nn2C)cnc(C2CC2)c1F` [Example 33, 5-(6-Cyclopropyl-5-fluoro-4-methyl-pyridin-3-yl)-N-(2,6-difluoro-phenyl)-1-methyl-1H-pyrazole-3-carboxylic acid amide], the inhibition at 10 µM in experiment [1] (setting [3]) is more than 70%. For the same molecule, the IC50 in experiment [2] lay in the range of 1 to 5 µM.
Regarding `Cc1cc(OCC2CCC2)ncc1-c1cc(C(=O)Nc2c(F)cccc2F)nn1C` [Example 18], the half-maximal inhibitory concentration (IC50) in experiment [2] was in the range of 1 to 5 µM.
As for `COc1cc(OC(F)F)ncc1-c1cc(C(=O)Nc2c(F)cccc2F)nn1C` [Example 43, 5-[6-(Difluoro-methoxy)-4-methoxy-pyridin-3-yl]-N-(2,6-difluoro-phenyl)-1-methyl-1H-pyrazole-3-carboxylic acid amide], the inhibition at 10 µM in experiment [1] (setting [3]) was more than 70%. For the same molecule, the 50% inhibitory concentration (IC50) in experiment [2] was less than 0.5 µM.
The like results for `COc1cc(Cl)c(-c2cc(C(=O)Nc3c(F)cccc3F)nn2C)cn1` [Example 56, 5-(4-Chloro-6-methoxy-pyridin-3-yl)-N-(2,6-difluoro-phenyl)-1-methyl-1H-pyrazole-3-carboxylic acid amide] were, in that order, more than 70% and 0.5 to 1 µM.
For `COc1cc(OC2CC2)ncc1-c1cc(C(=O)Nc2c(F)cccc2F)nn1C` [Example 61, 5-(6-Cyclopropyloxy-4-methoxy-pyridin-3-yl)-N-(2,6-difluoro-phenyl)-1-methyl-1H-pyrazole-3-carboxylic acid amide] the same measures were more than 70% and less than 0.5 µM.
On to `Cc1cc(C#N)ncc1-c1cc(C(=O)Nc2c(F)cccc2F)nn1C` [Example 41, 5-(6-Cyano-4-methyl-pyridin-3-yl)-N-(2,6-difluoro-phenyl)-1-methyl-1H-pyrazole-3-carboxylic acid amide], for which the inhibition at 10 µM in experiment [1] (setting [3]) was less than 50%.
`COc1cc(N(C)C)c(-c2cc(C(=O)Nc3c(F)cccc3F)nn2C)cn1` [Example 75, N-(2,6-Difluoro-phenyl)-5-(4-dimethylamino-6-methoxy-pyridin-3-yl)-1-methyl-1H-pyrazole-3-carboxylic acid amide]: the half-inhibitory concentration (IC50) in experiment [2] lay within 1 to 5 µM.
`Cn1nc(C(=O)Nc2c(F)cccc2F)cc1-c1nc(C(F)(F)F)ccc1C#N` [Example 72, 5-[3-Cyano-6-(trifluoromethyl)-pyridin-2-yl]-N-(2,6-difluoro-phenyl)-1-methyl-1H-pyrazole-3-carboxylic acid amide]: the inhibition at 10 µM in experiment [1] (setting [3]) was less than 50%.
Turning to `COc1cc(C)c(-c2cc(C(=O)Nc3c(F)cccc3F)nn2C)cn1` [Example 58, N-(2,6-Difluoro-phenyl)-5-(6-methoxy-4-methyl-pyridin-3-yl)-1-methyl-1H-pyrazole-3-carboxylic acid amide], in experiment [2], the half-inhibitory concentration (IC50) was in the range of 1 to 5 µM.
On to `COc1cc(O)ncc1-c1cc(C(=O)Nc2c(F)cccc2F)nn1C` [Example 70, N-(2,6-Difluoro-phenyl)-5-(6-hydroxy-4-methoxy-pyridin-3-yl)-1-methyl-1H-pyrazole-3-carboxylic acid amide], for which the inhibition at 10 µM in experiment [1] (setting [3]) was less than 50%.
Consider `COc1cc(C2CC2)ncc1-c1cc(C(=O)Nc2c(F)cncc2F)nn1C` [Example 53, 5-(6-Cyclopropyl-4-methoxy-pyridin-3-yl)-N-(3,5-difluoro-pyridin-4-yl)-1-methyl-1H-pyrazole-3-carboxylic acid amide], for which the half-maximal inhibitory concentration (IC50) in experiment [2] is 0.5 to 1 µM.
On to `COCc1cc(C)c(-c2cc(C(=O)Nc3c(F)cccc3F)nn2C)cn1` [Example 59, N-(2,6-Difluoro-phenyl)-5-[6-(methoxymethyl)-4-methyl-pyridin-3-yl]-1-methyl-1H-pyrazole-3-carboxylic acid amide], for which the results for the inhibition at 10 µM in experiment [1] (setting [4]) and in experiment [1] (setting [3]) were 67% and 50 to 70%, respectively.
In the case of `COc1cc(C(F)(F)F)ncc1-c1cc(C(=O)Nc2c(F)cccc2F)nn1C` [Example 42, N-(2,6-Difluoro-phenyl)-5-[4-methoxy-6-(trifluoromethyl)-pyridin-3-yl]-1-methyl-1H-pyrazole-3-carboxylic acid amide], the concentration for half-maximal inhibition (IC50) in experiment [2] lay within 0.5 to 1 µM.
On the same count and under the same terms, the result for `Cc1cc(OC(C)C)ncc1-c1cc(C(=O)Nc2c(F)cncc2F)nn1C` [Example 52, N-(3,5-Difluoro-pyridin-4-yl)-5-(6-isopropoxy-4-methyl-pyridin-3-yl)-1-methyl-1H-pyrazole-3-carboxylic acid amide] reads 0.5 to 1 µM.
For `CCOc1cc(O)c(-c2cc(C(=O)Nc3c(F)cccc3F)nn2C)cn1` [Example 71, N-(2,6-Difluoro-phenyl)-5-(6-ethoxy-4-hydroxy-pyridin-3-yl)-1-methyl-1H-pyrazole-3-carboxylic acid amide], in experiment [1] (setting [3]), the inhibition at 10 µM was less than 50%.
As for `Cc1cc(COc2cc(C)c(-c3cc(C(=O)Nc4c(F)cccc4F)nn3C)cn2)no1` [Example 19, N-(2,6-Difluoro-phenyl)-1-methyl-5-[4-methyl-6-[(5-methyl-isoxazol-3-yl)-methoxy]-pyridin-3-yl]-1H-pyrazole-3-carboxylic acid amide], the inhibition at 10 µM was 113% in experiment [1] (setting [4]) and more than 70% in experiment [1] (setting [3]).
Take `Cn1nc(C(=O)Nc2c(F)cccc2F)cc1-c1nc(C(C)(C)C)ccc1C#N` [Example 73, 5-(6-tert-Butyl-3-cyano-pyridin-2-yl)-N-(2,6-difluoro-phenyl)-1-methyl-1H-pyrazole-3-carboxylic acid amide]: the inhibition at 10 µM in experiment [1] (setting [3]) was less than 50%.
